Literature values as cited in publication PMC8342870 (International Journal of Biological Macromolecules, 2021).

Molecular target: SARS-CoV-2 PLpro (Severe acute respiratory syndrome coronavirus 2, UniProt P0DTD1)
Conditions: previous work ref 29

Q: With `CN1C[C@H](C(=O)N[C@]2(C)O[C@@]3(O)[C@@H]4CCCN4C(=O)[C@H](Cc4ccccc4)N3C2=O)C=C2c3cccc4[nH]cc(c34)C[C@H]21` [ergotamine] as the compound, how does the “reported rigid docking score” value read?
A: -9.2 kcal/mol
